From EP2604265A1, “P2x7 antagonists as frontline or adjunctive treatment against status epilepticus” (Royal College of Surgeons in Ireland (RCSI), priority 2011, dated 2013) come the findings set out here.

One experiment deals with glutamate receptors. Nature of the experiment: Fura-2 calcium microfluorimetry, glutamate-evoked calcium entry. To be noted: cultured hippocampal neurons; glutamate 100 µM; BBG 1 µM. In kind it is cell-based, mouse. The method, then: Hippocampal neurons were prepared as described previously (Diaz-Hernandez et al., 2008). Briefly, hippocampi were obtained from E17 mouse embryos and, after dissection and washing three times in Ca^2+/Mg^2+-free HBSS, tissue was digested in the same solution with 0.25% trypsin for 15 min at 37°C. Hippocampi were then washed three times in Ca^2+/Mg^2+-free HBSS and dissociated with a firepolished Pasteur pipette. Cells were counted, resuspended in plating medium (MEM, 10% fetal bovine serum, 0.6% glucose) and plated at a density of 5,000 cells/cm^2 on poly-L-lysine coated coverslips (1 mg/ml). After plating, neurons were cultured for 24-72 h in neuronal culture medium (Neurobasal, B-27, glutamax-I). For biochemical experiments, hippocampal neurons were plated on polylysine-coated (1 mg/ml) 60-mm plates at a density of 200,000 cells/cm^2, and cultured for 72 h in neuronal culture medium. AraC was added at a final concentration of 5 µM after 2 days in culture.
Calcium microfluorimetric analysis in single neurons was carried out according to (Diaz-Hernandez et al., 2001). […]
Neurons were visualized using a Plan Fluor x40 S/0.5-1.3 oil lens. […] The background was subtracted at each wavelength and the 340 / 380 ratio was calculated. The data are represented as the normalized F340/F380 fluorescence ratio, which increases as [Ca^2+]i increases.

Experiment [1] has as its system Adult male C57BL/6 mice. Nature of the experiment: Intra-amygdala KA-induced SE in mice, EEG, early post-treatment after seizure onset. In kind it is in vivo. Conditions: i.c.v. 15 min after KA. The method, then: (§1) Adult male C57BL/6 mice (20-25 g) were obtained from Harlan UK (Blackthorn, UK). Mice were first anesthetized using isoflurane (3-5%) and maintained normothermic by means of a feedback-controlled heat blanket (Harvard Apparatus Ltd, Kent, UK). Mice were next placed in a stereotaxic frame and three partial craniectomies performed to affix cortical skull-mounted EEG electrodes (Bilaney Consultants Ltd, Sevenoaks, UK). EEG was recorded using a Grass Comet XL digital EEG (Medivent Ltd, Lucan, Ireland). A guide cannula was affixed (coordinates from Bregma: AP = 0.94; L = 2.85 mm) and the assembly fixed in place with dental cement. Anesthesia was then discontinued and freely moving mice were placed inside a clear perspex recording chamber. EEG recordings were commenced and after establishing baseline EEG for a few minutes, an injection cannula was lowered through the guide cannula for injection of kainic acid (KA) (Ocean Produce International, Nova Scotia, Canada) into the basolateral amygdala nucleus (0.3 µg in 0.2 µl phosphate-buffered saline). Non-seizure control mice underwent the same surgical procedure but received 0.2 µl intra-amygdala vehicle. Mice were killed at different time-points (1, 4, 8 or 24 h) later and perfused with saline to remove intravascular blood components. Brains were either flash-frozen whole in 2-methylbutane at […] or perfused with 4% PFA for histopathology, or dissected on ice to obtain whole hippocampus or microdissected to obtain the different hippocampal subfields (CA1, DG and CA3).
(§2) Digitized EEG recordings were analyzed off-line using manual assessment and automated software. The occurrence of high amplitude high frequency spiking during seizures is synonymous with injury-causing electrographic seizures during SE (also termed type IV electrographic seizures) (Lowenstein et al., 1991; Henshall et al., 2000). The duration of high-frequency (>5 Hz) high-amplitude (>2× baseline) polyspike discharges of ≥5 s duration (HAHFDs) was counted by a reviewer blind to treatment. Further EEG analysis was performed by uploading EEG into Labchart7 software (ADInstruments) to calculate the power spectral density (total power, a measure of the input signal's power (amplitude) over frequency) EEG spectrogram (spectral power against frequency and time).
(§3) A-438079 (3-[[5-(2,3-Dichlorophenyl)-1H-tetrazol-1-yl]methyl]pyridine hydrochloride) (50 µM) was from Tocris Biosciences (Bristol, U.K.) and the P2X7R specific antibody was from Alomone Labs (APR-008, Alomone Labs, Ltd, Jerusalem, Israel) and injected at 0.7 mg/ml. Lorazepam (Ativan®, Wyeth, Taplow, U.K.) (6 mg/kg) was administered intraperitoneally (i.p.) at 40 or 60 min after KA.
15 min after the injection of KA. […]

Experiment [2] concerns Adult male C57BL/6 mice. Nature of the experiment: Refractory SE model in mice, drugs given 60 min post-KA, EEG during the next hour. The class given is in vivo. The method, then: as §1, §2, §3
To model refractory SE, seizures were allowed to continue beyond the normal time when lorazepam is given (40 min) and instead the effects of drugs were recorded 60 min post-KA on the EEG during the next hour.

Turning to `CCOc1ccc(Nc2ccc(C(=C3C=CC(=[N+](CC)Cc4cccc(S(=O)(=O)[O-])c4)C=C3C)c3ccc(N(CC)Cc4cccc(S(=O)(=O)O)c4)cc3C)cc2)cc1` [BBG, Brilliant Blue G], in the experiment with glutamate receptors, the glutamate-induced calcium entry entry is listed as “failed to alter”.

`Cl.Clc1cccc(-c2nnnn2Cc2cccnc2)c1Cl` [A-438079, 3-[[5-(2,3-Dichlorophenyl)-1H-tetrazol-1-yl]methyl]pyridine hydrochloride]: in the experiment with Adult male C57BL/6 mice [1] (recorded until lorazepam at 40 min post-KA, vs vehicle), the “duration of HAHFDs” value is recorded as “significantly reduced”. Further, the Total seizure power result in the experiment on Adult male C57BL/6 mice [1] (until 40 min post-KA, vs vehicle) is reported as “significantly reduced”. In the experiment on Adult male C57BL/6 mice [1] (vs vehicle), the “frequency of the EEG” value is reported as “No changes”. In the experiment with Adult male C57BL/6 mice [1] (spectral heat map during SE), the seizure amplitude result is reported as “decreased”. In addition, in the experiment on Adult male C57BL/6 mice [2] (given 60 min after KA, 60 min recording, vs vehicle), the “total seizure time (duration of HAHFDs)” value is given as “not significantly different”. Also, the seizure activity result in the experiment on Adult male C57BL/6 mice [2] (given 60 min after KA, particularly within the first 15-30 min following injection) was “some suppression”. In addition, the “mice continued in SE” value in the experiment on Adult male C57BL/6 mice [2] (given alone 60 min after KA, number of mice / group) was 3/5.
